Assay [1] deals with Caenorhabditis elegans slo-1a (Caenorhabditis elegans, UniProt Q95V25). The assay is described as follows: Agonistic activity at C. elegans Slo-1a, membrane potential (FLIPR) in transfected CHO K1 cells. Particulars: EC50 agonistic activity at C. elegans Slo-1a, membrane potential dye, 70 mM KCl.
Description: A CHO K1 cell line stably transfected with the Caenorhabditis elegans slo-1a (accession no Y51A2D.19a) was established. Cells were seeded in microtiter plates (black 384-well MTP, clear bottom) in a concentration of 10,000 cells/well in 25 μl medium and cultured for 20 to 24 hours at 37° C. and 5% CO2. The cell medium was removed, and the cells washed with Tyrode's solution. 1 of FMP-dye Blue-Tyrode's was added to each well and incubated at room temperature for 30 min.
For the membrane potential measurements, the prepared cell plate and substance plate were placed in the FLIPR Tetra (Molecular Devices). The baseline measurement of the fluorescence was stared for 20 sec (Exc. 510-545 nm, Emm. 565-625 nm). The cells were depolarized by addition of 25p of the diluted test compounds (final assay concentration of the KCl-Tyrode: 70 mM KCl, 2 mM CaCl2), 1 mM MgCl2, 0.8 mM NaH2PO4, 5 mM Glucose, 28 mM Hepes, pH 7.4, including the voltage sensitive dye). The complete measurement takes 150 s.
EC50 values were determined in triplicate utilizing compound dilution series. The data were determined at least in two independent tests. The data were proceeded by using the ActivityBase XE Runner software (IDBS) for curve fitting and calculation of the half-maximal effective concentration.
Assay [2] has as its system Ascaridia galli L3. The assay is described as follows: In vitro assay Ascaridia galli larval stage 3, minimum effective concentration. In kind it is cell-based. Particulars: 20 larvae per well, microscopic examination, read-out: MEC (minimum effective concentration) against Ascaridia galli L3. The source says: (§1) […] galli (intestinal roundworm of chicken), larval stage 3 (“L3”); and Oesophagostumum dentatum (nodular worm of swine), larval stages 3 and 4 (respectively “L3” and “L4”) where suspended in a nutrient medium and distributed to 96 well plates with 20 larvae per well. The wells were spiked DMSO solutions of the compounds with declining concentration.

Assay [3] has as its target T1, human Maxi K channel (BK channel), KCNMA1 (KCa1.1) and beta1 (KCNMB1) subunits (Homo sapiens, UniProt Q12791).
T1 construct: expressed in transfected cells; host or cells: CHO K1
The assay is described as follows: Agonistic activity at the human Maxi K channel (BK channel), membrane potential (FLIPR) in transfected CHO K1 cells. It is filed as cell-based. Particulars: membrane potential dye, 70 mM KCl. The source says:
A CHO K1 cell line was stably transfected with the KCNMA1 (KCa1.1, U11058) and beta1 (KCNMB1) subunits of the human Maxi K channel (Ponte et al, Molecular Pharmacology 2012, 81(4), 567-577).
The complete measurement takes 150 s.

The subject of assay [4] is Oesophagostumum dentatum L3. In words: In vitro assay Oesophagostumum dentatum larval stage 3, minimum effective concentration. In kind it is cell-based. As to conditions: 20 larvae per well, microscopic examination; read-out: MEC (minimum effective concentration) against Oesophagostumum dentatum L3.
Description: as §1

Results on 39 compounds are retold here after patent publication US12509449B2, “Anthelmintic compounds comprising a quinoline structure” (Intervet Inc., priority 2019, dated 2025).

Sequence of Caenorhabditis elegans slo-1a (Q95V25 whole entry): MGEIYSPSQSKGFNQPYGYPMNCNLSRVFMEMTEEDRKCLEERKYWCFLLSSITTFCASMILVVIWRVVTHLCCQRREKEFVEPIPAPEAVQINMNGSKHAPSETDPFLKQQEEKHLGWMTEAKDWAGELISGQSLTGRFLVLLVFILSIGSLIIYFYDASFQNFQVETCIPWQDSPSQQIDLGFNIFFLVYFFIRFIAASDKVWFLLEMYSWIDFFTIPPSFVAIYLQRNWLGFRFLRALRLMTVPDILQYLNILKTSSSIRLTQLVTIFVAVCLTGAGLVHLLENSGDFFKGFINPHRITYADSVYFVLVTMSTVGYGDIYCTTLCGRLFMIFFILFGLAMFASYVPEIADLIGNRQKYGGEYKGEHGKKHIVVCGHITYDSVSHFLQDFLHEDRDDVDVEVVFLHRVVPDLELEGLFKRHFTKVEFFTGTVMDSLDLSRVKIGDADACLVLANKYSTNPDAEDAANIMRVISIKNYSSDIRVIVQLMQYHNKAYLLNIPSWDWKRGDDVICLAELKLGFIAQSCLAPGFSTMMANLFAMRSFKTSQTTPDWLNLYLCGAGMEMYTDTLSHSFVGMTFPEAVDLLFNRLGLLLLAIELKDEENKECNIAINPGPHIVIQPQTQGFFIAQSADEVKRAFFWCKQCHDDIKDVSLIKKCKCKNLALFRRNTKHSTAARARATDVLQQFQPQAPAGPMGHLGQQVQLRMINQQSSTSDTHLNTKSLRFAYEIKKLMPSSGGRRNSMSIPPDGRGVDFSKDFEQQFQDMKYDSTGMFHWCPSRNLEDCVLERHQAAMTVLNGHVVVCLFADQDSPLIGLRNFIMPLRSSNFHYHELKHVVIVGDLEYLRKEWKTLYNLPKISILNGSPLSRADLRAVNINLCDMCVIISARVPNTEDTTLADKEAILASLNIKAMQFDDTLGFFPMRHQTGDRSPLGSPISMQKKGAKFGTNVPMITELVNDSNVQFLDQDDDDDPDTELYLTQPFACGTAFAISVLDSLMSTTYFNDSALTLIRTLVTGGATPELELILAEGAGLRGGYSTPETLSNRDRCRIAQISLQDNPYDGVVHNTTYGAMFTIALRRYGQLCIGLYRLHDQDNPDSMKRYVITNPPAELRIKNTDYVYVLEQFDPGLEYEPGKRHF
T1 sequence (Q12791 1-1178 isoform Q12791-5): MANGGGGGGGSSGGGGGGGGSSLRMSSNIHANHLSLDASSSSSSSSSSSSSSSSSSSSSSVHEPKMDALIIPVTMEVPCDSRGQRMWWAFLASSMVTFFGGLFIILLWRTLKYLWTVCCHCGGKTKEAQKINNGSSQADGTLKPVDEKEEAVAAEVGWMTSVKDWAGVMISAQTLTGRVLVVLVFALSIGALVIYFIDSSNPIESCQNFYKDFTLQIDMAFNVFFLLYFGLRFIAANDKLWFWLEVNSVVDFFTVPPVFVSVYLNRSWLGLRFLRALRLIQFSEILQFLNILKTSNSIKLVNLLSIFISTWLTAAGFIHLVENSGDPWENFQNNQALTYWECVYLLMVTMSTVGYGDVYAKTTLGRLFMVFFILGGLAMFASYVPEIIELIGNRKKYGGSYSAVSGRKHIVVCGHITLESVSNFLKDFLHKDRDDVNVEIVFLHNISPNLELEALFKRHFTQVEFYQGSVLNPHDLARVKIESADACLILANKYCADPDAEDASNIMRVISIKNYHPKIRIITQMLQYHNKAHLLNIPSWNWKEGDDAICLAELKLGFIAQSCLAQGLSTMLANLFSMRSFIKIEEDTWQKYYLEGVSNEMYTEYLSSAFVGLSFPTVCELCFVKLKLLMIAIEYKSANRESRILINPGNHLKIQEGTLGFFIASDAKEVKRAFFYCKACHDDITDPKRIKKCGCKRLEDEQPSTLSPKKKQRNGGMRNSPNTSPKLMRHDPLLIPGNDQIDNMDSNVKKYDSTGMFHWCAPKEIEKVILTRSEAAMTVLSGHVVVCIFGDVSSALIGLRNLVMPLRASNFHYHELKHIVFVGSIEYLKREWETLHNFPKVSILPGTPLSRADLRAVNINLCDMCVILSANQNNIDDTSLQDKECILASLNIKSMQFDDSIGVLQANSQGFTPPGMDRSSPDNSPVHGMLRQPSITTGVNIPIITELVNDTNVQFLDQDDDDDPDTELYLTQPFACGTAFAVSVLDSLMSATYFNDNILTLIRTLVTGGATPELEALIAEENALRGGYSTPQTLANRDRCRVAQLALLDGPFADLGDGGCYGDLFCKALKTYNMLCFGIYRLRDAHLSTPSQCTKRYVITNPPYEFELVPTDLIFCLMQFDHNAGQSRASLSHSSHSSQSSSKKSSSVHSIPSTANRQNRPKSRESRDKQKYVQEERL
T1 sequence (Q16558 whole entry partner): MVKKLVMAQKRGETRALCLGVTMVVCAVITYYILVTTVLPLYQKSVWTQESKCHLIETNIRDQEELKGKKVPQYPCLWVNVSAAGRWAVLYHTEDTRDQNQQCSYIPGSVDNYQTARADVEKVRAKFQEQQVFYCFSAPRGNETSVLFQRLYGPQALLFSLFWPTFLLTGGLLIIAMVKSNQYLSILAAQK

For orientation: EC50 means the midpoint of the concentration-response curve. Read a high EC50 as weaker potency. As for `CN(C)c1c(NC(=O)C2CCOc3ccccc32)cnc2c(-c3cccc(Cl)c3Cl)cccc12` (stereo not drawn) [Compound 12], the values for the EC50 in assay [1] and in assay [3] were less than 1 µM and greater than 30 µM, respectively. Further, in assay [2], the minimal effective concentration is no more than 50 µM.

For `COc1c(NC(=O)C2CCCc3ccccc32)cnc2c(-c3cccc(Cl)c3Cl)cccc12` (stereo not drawn) [Compound 14], the EC50 in assay [1] was less than 1 µM; in assay [3] it was greater than 30 µM. The minimal effective concentration in assay [2] was no more than 50 µM.

With `COc1c(NC(=O)C2CCOc3ccccc32)cnc2c(-c3cccc(Cl)c3Cl)cccc12` (stereo not drawn) [Compound 15], the figures for the EC50 in assay [1] and in assay [3] were less than 1 µM and greater than 30 µM, respectively. Further, the minimal effective concentration in assay [2] is no more than 50 µM.

For the compound `COc1c(NC(=O)C2CCc3ccccc32)cnc2c(-c3cccc(Cl)c3Cl)cccc12` (stereo not drawn) [Compound 16], the EC50 is less than 1 µM in assay [1] and greater than 30 µM in assay [3]. Moreover, the minimal effective concentration in assay [2] was no more than 50 µM.

For `CC(C(=O)Nc1cnc2c(-c3cccc(Cl)c3Cl)cccc2c1N1CCOCC1)c1ccccc1` (stereo not drawn) [Compound 21], the figures for the EC50 in assay [1] and in assay [3] were less than 10 µM and greater than 30 µM, respectively. Besides, in assay [2], the minimal effective concentration was no more than 50 µM.

Consider `CN(C)c1c(NC(=O)Cc2ccc(Cl)cc2)cnc2c(-c3cccc(Cl)c3Cl)cccc12` [Compound 25], for which the minimal effective concentration in assay [4] was no more than 50 µM. Moreover, the concentration giving a half-maximal response (EC50) in assay [1] was less than 10 µM; in assay [3], greater than 30 µM.

On to `Cc1ccc(CC(=O)Nc2cnc3c(-c4cccc(Cl)c4Cl)cccc3c2N(C)C)cc1` [Compound 26], for which, in assay [4], the minimal effective concentration was no more than 50 µM. Besides, the EC50 in assay [1] was less than 10 µM; in assay [3], greater than 30 µM.

As to `Cc1cccc(CC(=O)Nc2cnc3c(-c4cccc(Cl)c4Cl)cccc3c2N(C)C)c1` [Compound 35], in assay [4], the minimal effective concentration is no more than 50 µM. The EC50 in assay [1] is less than 10 µM; in assay [3], greater than 30 µM.

Turning to `CN(C)c1c(NC(=O)C2CCOc3ccccc32)cnc2c(-c3cc(F)cc(F)c3)cccc12` (stereo not drawn) [Compound 38], the EC50 in assay [1] was less than 10 µM; in assay [3] it was greater than 30 µM. Also, in assay [2], the minimal effective concentration was no more than 50 µM.

`CN(C)c1c(NC(=O)C2CCOc3ccccc32)cnc2c(-c3cc(F)c(F)c(F)c3)cccc12` (stereo not drawn) [Compound 39]: the half-maximal effective concentration (EC50) in assay [1] was less than 10 µM; in assay [3], greater than 30 µM. Further, in assay [2], the minimal effective concentration is no more than 50 µM.

Take `CCOc1c(NC(=O)C2CCc3ccccc32)cnc2c(-c3cccc(Cl)c3Cl)cccc12` (stereo not drawn) [Compound 57, N-(8-(2,3-dichlorophenyl)-4-ethoxyquinolin-3-yl)-2,3-dihydro-1H-indene-1-carboxamide]: the minimal effective concentration in assay [4] is no more than 50 µM. Besides, the values for the EC50 in assay [1] and in assay [3] were less than 1 µM and greater than 30 µM, respectively.

As for `CN(C)c1c(NC(=O)C2CCOc3ccccc32)cnc2c(-c3cc(Cl)cc(Cl)c3)cccc12` (stereo not drawn) [Compound 67], the half-maximal effective concentration (EC50) in assay [1] is less than 1 µM; in assay [3], greater than 30 µM. Moreover, the minimal effective concentration in assay [2] was no more than 50 µM.

Regarding `COc1c(NC(=O)C2CCCc3ccccc32)cnc2c(-c3cc(Cl)cc(Cl)c3)cccc12` (stereo not drawn) [Compound 69], the EC50 in assay [1] is less than 1 µM; in assay [3] it was greater than 30 µM. In addition, the minimal effective concentration in assay [2] is no more than 50 µM.

On to `CC(C)Oc1c(NC(=O)C2CCCc3ccccc32)cnc2c(-c3cc(Cl)cc(Cl)c3)cccc12` (stereo not drawn) [Compound 76, N-(8-(3,5-dichlorophenyl)-4-isopropoxyquinolin-3-yl)-1,2,3,4-tetrahydro-naphthalene-1-carboxamide], for which the minimal effective concentration in assay [2] is no more than 50 µM. The compound further showed an EC50 in assay [3] greater than 30 µM.

On to `CC(C)Oc1c(NC(=O)c2cccc3ccccc23)cnc2c(-c3cc(Cl)cc(Cl)c3)cccc12` [Compound 81], for which the minimal effective concentration in assay [4] was no more than 50 µM. This compound gave an EC50 in assay [3] greater than 30 µM.

As for `Nc1c(NC(=O)C2CCOc3ccccc32)cnc2c(-c3cccc(Cl)c3Cl)cccc12` (stereo not drawn) [Compound 84], the EC50 in assay [1] was less than 10 µM; in assay [3], greater than 30 µM. The minimal effective concentration in assay [2] is no more than 50 µM.

`CC(C)N(C)c1c(NC(=O)C2CCOc3ccccc32)cnc2c(-c3cccc(Cl)c3Cl)cccc12` (stereo not drawn) [Compound 89]: the minimal effective concentration in assay [2] was no more than 50 µM. This compound gave an EC50 in assay [3] greater than 30 µM.

Consider `CCNc1c(NC(=O)C2CCCc3ccccc32)cnc2c(-c3cccc(Cl)c3Cl)cccc12` (stereo not drawn) [Compound 96], for which the minimal effective concentration in assay [2] was no more than 50 µM. Also, the EC50 in assay [3] fell in the range of 10 to 30 µM.

Turning to `CN(CCO)c1c(NC(=O)C2CCCc3ccccc32)cnc2c(-c3cccc(Cl)c3Cl)cccc12` (stereo not drawn) [Compound 102], the EC50 in assay [1] is less than 1 µM; in assay [3], 10 to 30 µM. Moreover, the minimal effective concentration in assay [2] is no more than 50 µM.

Turning to `CCc1c(NC(=O)c2ccnc3ccccc23)cnc2c(-c3cccc(Cl)c3Cl)cccc12` [Compound 104], the minimal effective concentration in assay [2] is no more than 50 µM. The compound also returned a 50% effective concentration (EC50) in assay [3] greater than 30 µM.

For the compound `O=C(Nc1cnc2c(-c3cccc(Cl)c3Cl)cccc2c1O)C1CCOc2ccccc21` (stereo not drawn) [Compound 112], the minimal effective concentration in assay [4] was no more than 50 µM. Moreover, the concentration giving a half-maximal response (EC50) in assay [3] is greater than 30 µM.

With `COc1c(NC(=O)C2CCCc3ccccc32)cnc2c(-c3cc(Cl)cc(Cl)c3)c(F)ccc12` (stereo not drawn) [Compound 113], the concentration for a half-maximal effect (EC50) in assay [1] is less than 1 µM; in assay [3], greater than 30 µM. For the same compound, the minimal effective concentration in assay [2] was no more than 50 µM.

In the case of `CCOc1c(NC(=O)C2CCCc3ccccc32)cnc2c(-c3cc(Cl)cc(Cl)c3)c(F)ccc12` (stereo not drawn) [Compound 114], the minimal effective concentration in assay [4] is no more than 50 µM. In assay [3], this compound yielded a half-maximal effective concentration (EC50) greater than 30 µM.

As to `CN(C)c1c(NC(=O)C2CCCc3ccccc32)cnc2c(-c3cc(Cl)cc(Cl)c3)c(F)ccc12` (stereo not drawn) [Compound 115], the values for the EC50 in assay [1] and in assay [3] were less than 1 µM and greater than 30 µM, respectively. Moreover, the minimal effective concentration in assay [2] is no more than 50 µM.

`COc1c(NC(=O)C2CCOc3ccccc32)cnc2c(-c3cc(Cl)cc(Cl)c3)c(F)ccc12` (stereo not drawn) [Compound 123]: the figures for the EC50 in assay [1] and in assay [3] were less than 1 µM and greater than 30 µM, respectively. Moreover, the minimal effective concentration in assay [2] was no more than 50 µM.

Consider `O=C(Nc1cnc2c(-c3cc(Cl)cc(Cl)c3)c(F)ccc2c1N1CCOCC1)C1CCc2ccccc21` (stereo not drawn) [Compound 136], for which the concentration for a half-maximal effect (EC50) in assay [1] is less than 10 µM; in assay [3], greater than 30 µM. Also, in assay [2], the minimal effective concentration was no more than 50 µM.

Regarding `CCOc1c(NC(=O)[C@H]2CCCc3ccccc32)cnc2c(-c3cc(Cl)cc(Cl)c3)cccc12` [Compound 154], the figures for the 50% effective concentration (EC50) in assay [1] and in assay [3] were less than 1 µM and greater than 30 µM, respectively. For the same compound, the minimal effective concentration in assay [2] is no more than 50 µM.

`COc1c(NC(=O)[C@H]2CCCc3ccccc32)cnc2c(-c3cc(Cl)cc(Cl)c3)cccc12` [Compound 155]: the figures for the EC50 in assay [1] and in assay [3] were less than 1 µM and greater than 30 µM, respectively. Further, the minimal effective concentration in assay [2] is no more than 50 µM.

Regarding `COc1c(NC(=O)C2CCOc3ccccc32)cnc2c(-c3cccc(Cl)c3Cl)c(C)ccc12` (stereo not drawn) [Compound 164], the concentration for a half-maximal effect (EC50) is less than 10 µM in assay [1] and greater than 30 µM in assay [3]. The minimal effective concentration in assay [2] is no more than 50 µM.

As for `CN(C)c1c(NC(=O)[C@H]2CCc3ccccc32)cnc2c(-c3cc(Cl)cc(Cl)c3)c(Cl)ccc12` [Compound 180], the concentration for a half-maximal effect (EC50) was less than 1 µM in assay [1] and greater than 30 µM in assay [3]. The minimal effective concentration in assay [2] is no more than 50 µM.

Regarding `Cc1ccc2c(N(C)C)c(NC(=O)[C@H]3CCc4ccccc43)cnc2c1-c1cc(Cl)cc(Cl)c1` [Compound 182], the EC50 was less than 1 µM in assay [1] and greater than 30 µM in assay [3]. The minimal effective concentration in assay [2] is no more than 50 µM.

On to `CCc1c(NC(=O)C2CCCc3ccccc32)cnc2c(-c3cc(Cl)cc(Cl)c3)cccc12` (stereo not drawn) [Compound 191], for which the minimal effective concentration in assay [4] is no more than 50 µM. Moreover, the EC50 in assay [1] is less than 1 µM; in assay [3], greater than 30 µM.

With `Cc1c(NC(=O)C2CCOc3ccccc32)cnc2c(-c3cc(Cl)cc(Cl)c3)cccc12` (stereo not drawn) [Compound 194], the 50% effective concentration (EC50) in assay [1] was less than 10 µM; in assay [3], greater than 30 µM. Besides, the minimal effective concentration in assay [2] is no more than 50 µM.

As for `CCc1c(NC(=O)C2CCOc3ccccc32)cnc2c(-c3cc(Cl)cc(Cl)c3)cccc12` (stereo not drawn) [Compound 195], the figures for the EC50 in assay [1] and in assay [3] were less than 1 µM and greater than 30 µM, respectively. The minimal effective concentration in assay [2] is no more than 50 µM.

Consider `CCc1c(NC(=O)[C@H]2CCCc3ccccc32)cnc2c(-c3cc(Cl)cc(Cl)c3)cccc12` [Compound 197], for which the EC50 in assay [1] is less than 1 µM; in assay [3], greater than 30 µM. Moreover, the minimal effective concentration in assay [2] was no more than 50 µM.

On to `Cc1c(NC(=O)c2cccc3ccccc23)cnc2c(-c3cc(Cl)cc(Cl)c3)cccc12` [Compound 198], for which, in assay [2], the minimal effective concentration was no more than 50 µM. In assay [3], this compound gave a 50% effective concentration (EC50) greater than 30 µM.

Regarding `CCc1c(NC(=O)c2cccc3ccccc23)cnc2c(-c3cc(Cl)cc(Cl)c3)cccc12` [Compound 199], the values for the EC50 in assay [1] and in assay [3] were less than 10 µM and greater than 30 µM, respectively. In assay [2], the minimal effective concentration is no more than 50 µM.

As for `C=C(C)c1c(NC(=O)c2cccc3ccccc23)cnc2c(-c3cc(Cl)cc(Cl)c3)cccc12` [Compound 200], the minimal effective concentration in assay [2] was no more than 50 µM. The compound also registered an EC50 in assay [3] greater than 30 µM.

With `C=C(C)c1c(NC(=O)C2CCCc3ccccc32)cnc2c(-c3cccc(Cl)c3Cl)cccc12` (stereo not drawn) [Compound 202], the minimal effective concentration in assay [4] is no more than 50 µM. For the same compound, the EC50 in assay [1] is less than 1 µM; in assay [3], greater than 30 µM.
